Reference: PMC11822212, “High-throughput screening identifies Aurora kinase B as a critical therapeutic target for Merkel cell carcinoma” (Nature Communications, 2025)

Assays:
MCC13 cells (VN-MCC) = assay: qHTS cell viability (CellTiter-Glo, 72 h; primary and follow-up small molecule screen); assay type: cell-based, human; conditions: for MCC13_AUC: NPC library
MCC26 cells (VN-MCC) = assay: as above; assay type: cell-based, human
UISO cells (VN-MCC) = assay: as above; assay type: cell-based, human; conditions: for UISO_AUC: NPC library
WAGA cells (VP-MCC) = assay: as above; assay type: cell-based, human; conditions: for WAGA_AUC: NPC library
MKL-1 cells (VP-MCC) = assay: as above; assay type: cell-based, human; conditions: for MKL1_AUC: NPC library
MKL-2 cells (VP-MCC) = assay: as above; assay type: cell-based, human; conditions: for MKL2_AUC: NPC library
HACAT cells = assay: qHTS cell viability (CellTiter-Glo, 72 h; primary screen), control cell line; assay type: cell-based, human; conditions: NPC library
HEK293T cells = assay: as above; assay type: cell-based, human
NIH-3T3 cells = assay: as above; assay type: cell-based, mouse; conditions: NPC library
CRL-7250 cells = assay: as above; assay type: cell-based; conditions: NPC library
[1] = test system: MCC cell lines (WAGA, MKL-1, MKL-2, MCC13, MCC26, UISO); assay: qHTS cell viability, all six MCC cell lines as a group (mean AUC, MCC.avg); assay type: cell-based, human; conditions: NPC library
[2] = test system: VP-MCC cell lines (WAGA, MKL-1, MKL-2); assay: qHTS cell viability, VP-MCC cell lines as a group (mean AUC, VP.MCC.avg); assay type: cell-based, human; conditions: for VP-MCC_Avg_AUC: mean AUC of VP-MCC cell lines
[3] = test system: VN-MCC cell lines (MCC13, MCC26, UISO); assay: qHTS cell viability, VN-MCC cell lines as a group (mean AUC, VN.MCC.avg); assay type: cell-based, human; conditions: for VN-MCC_Avg_AUC: mean AUC of VN-MCC cell lines
[4] = test system: control cell lines (HACAT, HEK293T, CRL-7250, NIH-3T3); assay: qHTS cell viability, control cell lines as a group (mean AUC, Control.avg); assay type: cell-based; conditions: NPC library; mean AUC of control cell lines
[5] = test system: six MCC cell lines and four control cell lines; assay: qHTS cell viability, all 10 cell lines screened; assay type: cell-based; conditions: NPC library
[6] = 8-point DRC, area under dose-response curve
[7] = qHTS dose-response AUC, HACAT control
[8] = qHTS dose-response AUC, NIH3T3 control
[9] = qHTS dose-response AUC, CRL7250 control
[10] = NPC library, therapeutic window: Control avg AUC minus VP-MCC avg AUC
[11] = NPC library, therapeutic window: Control avg AUC minus VN-MCC avg AUC
[12] = therapeutic window: Control avg AUC minus MCC avg AUC

Question: With `O=C1CC2(CCCC2)CC(=O)N1CCCCN1CCN(c2ncccn2)CC1` [Buspirone] as the compound, how does the MCC13_AUC (MCC13 cells (VN-MCC); [6]) read?
Answer: 448.981

Question: What about the MCC26_AUC (MCC26 cells (VN-MCC); NPC library, 8-point DRC, area under dose-response curve) of the same compound?
Answer: 427.549

Question: And the UISO_AUC (UISO cells (VN-MCC); [6])?
Answer: 435.953

Question: And the WAGA_AUC (WAGA cells (VP-MCC); [6])?
Answer: 446.274

Question: What about the MKL1_AUC (MKL-1 cells (VP-MCC); [6]) of the same compound?
Answer: 457.095

Question: What about the MKL2_AUC (MKL-2 cells (VP-MCC); [6]) of the same compound?
Answer: 407.552

Question: And the HACAT_AUC (HACAT cells; 8-point DRC, control cell line)?
Answer: 483.772

Question: What about the HEK293T_AUC (HEK293T cells; NPC library, 8-point DRC, control cell line) of the same compound?
Answer: 489.604

Question: And the NIH3T3_AUC (NIH-3T3 cells; 8-point DRC, control cell line)?
Answer: 490.08

Question: What about the CRL7250_AUC (CRL-7250 cells; 8-point DRC, control cell line) of the same compound?
Answer: 487.221

Question: And the MCC_Avg_AUC ([1]; mean AUC of six MCC cell lines)?
Answer: 437.234

Question: And the Control-VP-MCC ([2]; NPC library, Control AUC minus VP-MCC AUC (therapeutic window))?
Answer: 50.6954

Question: And the VP-MCC_Avg_AUC ([2]; NPC library)?
Answer: 436.974

Question: And the Control-VN-MCC ([3]; NPC library, Control AUC minus VN-MCC AUC (therapeutic window))?
Answer: 50.1753

Question: And the VN-MCC_Avg_AUC ([3]; NPC library)?
Answer: 437.494

Question: What about the Control_Avg_AUC [4] of the same compound?
Answer: 487.669

Question: What about the Control-MCC ([5]; Control AUC minus MCC AUC (therapeutic window)) of the same compound?
Answer: 50.4353

Question: Which results are given for `[H]/N=C(\N/C(=N/[H])NCCCCCCNC(=N)NC(=N)Nc1ccc(Cl)cc1)Nc1ccc(Cl)cc1` [Chlorhexidine]?
Answer: MCC13_AUC (MCC13 cells (VN-MCC); qHTS dose-response AUC, MCC13): 433.192; MCC26_AUC (MCC26 cells (VN-MCC); NPC library, qHTS dose-response AUC, MCC26): 406.333; UISO_AUC (UISO cells (VN-MCC); qHTS dose-response AUC, UISO): 378.135; WAGA_AUC (WAGA cells (VP-MCC); qHTS dose-response AUC, WAGA): 400.622; MKL1_AUC (MKL-1 cells (VP-MCC); qHTS dose-response AUC, MKL1): 377.448; MKL2_AUC (MKL-2 cells (VP-MCC); qHTS dose-response AUC, MKL2): 345.753; HACAT_AUC (HACAT cells; [7]): 458.563; HEK293T_AUC (HEK293T cells; NPC library, qHTS dose-response AUC, HEK293T control): 398.25; NIH3T3_AUC (NIH-3T3 cells; [8]): 459.651; CRL7250_AUC (CRL-7250 cells; [9]): 454.576; MCC_Avg_AUC ([1]; mean AUC of all 6 MCC cell lines): 390.247; MCC_Avg_AUC ([1]; mean AUC of six MCC cell lines): 390.247; Control-VP-MCC ([2]; Control AUC minus VP-MCC AUC): 68.1526; VP-MCC_Avg_AUC ([2]; NPC library): 374.608; Control-VP-MCC [2, 10]: 68.1526; Control-VN-MCC ([3]; Control AUC minus VN-MCC AUC): 36.8736; VN-MCC_Avg_AUC ([3]; NPC library): 405.887; Control-VN-MCC [3, 11]: 36.8736; Control_Avg_AUC [4]: 442.76; Control-MCC [5, 12]: 52.5131

Question: Which results are given for `CCCCCCC[N+](CC)(CC)CCCCc1ccc(Cl)cc1.Cc1ccc(S(=O)(=O)[O-])cc1` [Clofilium tosylate]?
Answer: MCC13_AUC (MCC13 cells (VN-MCC); qHTS dose-response AUC, MCC13): 487.681; Area under the dose-response curve (AUC) MCC13 Replicate 1 (MCC13 cells (VN-MCC); follow-up screen, MCC13, replicate 1): 426.2; Area under the dose-response curve (AUC) MCC13 Replicate 2 (MCC13 cells (VN-MCC); follow-up screen, MCC13, replicate 2): 460.3; Area under the dose-response curve (AUC) MCC13 Replicate 3 (MCC13 cells (VN-MCC); follow-up screen, MCC13, replicate 3): 452.0; MCC26_AUC (MCC26 cells (VN-MCC); NPC library; qHTS dose-response AUC, MCC26): 466.849; Area under the dose-response curve (AUC) MCC26 Replicate 1 (MCC26 cells (VN-MCC); follow-up screen; MCC26; replicate 1): 410.9; Area under the dose-response curve (AUC) MCC26 Replicate 2 (MCC26 cells (VN-MCC); follow-up screen; MCC26; replicate 2): 395.3; Area under the dose-response curve (AUC) MCC26 Replicate 3 (MCC26 cells (VN-MCC); follow-up screen; MCC26; replicate 3): 393.8; UISO_AUC (UISO cells (VN-MCC); qHTS dose-response AUC, UISO): 375.709; Area under the dose-response curve (AUC) UISO Replicate 1 (UISO cells (VN-MCC); follow-up screen, UISO, replicate 1): 319.6; Area under the dose-response curve (AUC) UISO Replicate 2 (UISO cells (VN-MCC); follow-up screen, UISO, replicate 2): 366.0; Area under the dose-response curve (AUC) UISO Replicate 3 (UISO cells (VN-MCC); follow-up screen, UISO, replicate 3): 321.7; WAGA_AUC (WAGA cells (VP-MCC); qHTS dose-response AUC, WAGA): 331.884; Area under the dose-response curve (AUC) WAGA Replicate 1 (WAGA cells (VP-MCC); follow-up screen, WAGA, replicate 1): 348.8; Area under the dose-response curve (AUC) WAGA Replicate 2 (WAGA cells (VP-MCC); follow-up screen, WAGA, replicate 2): 411.4; Area under the dose-response curve (AUC) WAGA Replicate 3 (WAGA cells (VP-MCC); follow-up screen, WAGA, replicate 3): 326.5; MKL1_AUC (MKL-1 cells (VP-MCC); qHTS dose-response AUC, MKL1): 311.939; Area under the dose-response curve (AUC) MKL-1 Replicate 1 (MKL-1 cells (VP-MCC); follow-up screen, MKL-1, replicate 1): 329.2; Area under the dose-response curve (AUC) MKL-1 Replicate 2 (MKL-1 cells (VP-MCC); follow-up screen, MKL-1, replicate 2): 327.6; Area under the dose-response curve (AUC) MKL-1 Replicate 3 (MKL-1 cells (VP-MCC); follow-up screen, MKL-1, replicate 3): 322.0; MKL2_AUC (MKL-2 cells (VP-MCC); qHTS dose-response AUC, MKL2): 283.262; Area under the dose-response curve (AUC) MKL-2 Replicate 1 (MKL-2 cells (VP-MCC); follow-up screen, MKL-2, replicate 1): 313.7; Area under the dose-response curve (AUC) MKL-2 Replicate 2 (MKL-2 cells (VP-MCC); follow-up screen, MKL-2, replicate 2): 309.2; Area under the dose-response curve (AUC) MKL-2 Replicate 3 (MKL-2 cells (VP-MCC); follow-up screen, MKL-2, replicate 3): 301.8; HACAT_AUC (HACAT cells; [7]): 444.696; HEK293T_AUC (HEK293T cells; NPC library; qHTS dose-response AUC, HEK293T control): 375.013; NIH3T3_AUC (NIH-3T3 cells; [8]): 452.7; CRL7250_AUC (CRL-7250 cells; [9]): 402.177; MCC_Avg_AUC ([1]; mean AUC of six MCC cell lines): 376.221; VP-MCC_Avg_AUC ([2]; NPC library): 309.028; Control-VP-MCC [2, 10]: 109.618; VN-MCC_Avg_AUC ([3]; NPC library): 443.413; Control-VN-MCC [3, 11]: -24.7666; Control_Avg_AUC [4]: 418.646; Control-MCC [5, 12]: 42.4257
